Data on two molecules can be found in PMC10233829 (ACS Omega, 2023).

The test system of one series is PC3 cells. The series is described as follows: MTT assay, cytotoxic activity. The format is cell-based, human. Particulars: MTT, 72 h. The essentials:
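Cytotoxicity readout: relative MTT level (%), i.e. absorbance of compound-treated PC3 cells divided by that of untreated controls, ×100. Cultures were kept in a humidified 37 °C, 5% CO2 incubator.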
(Tetrazolium dyes change colour on reduction, which living cells bring about.)

Series [1] relates to IL-6 level in HaCaT cells. Description: Interleukin-6 ELISA. Particulars: IC50 concentration, 72 h. The format is cell-based, human. On the procedure:
(§1) The level of interleukin-6 (IL-6) in PC3 and HaCaT cell lines was measured by commercial human IL-6 ELISA kits Diaclon SAS (Besancon Cedex, France). […] The untreated cells were used as the control. The IL-6 level in a cell culture supernatant was measured using an enzyme-linked immunosorbent assay in accordance with the manufacturer’s instruction. The experiment was repeated three times.
(An ELISA detects its analyte on a solid surface through an enzyme-linked reagent.)

The test system of a further series is IL-6 level in PC3 cells. Description: Interleukin-6 ELISA. The format is cell-based, human. The settings on record: PC3, IC50 concentration, 72 h. The protocol:
as §1

Series [2] concerns P. aeruginosa ATCC 15442. The series is described as follows: Bacterial growth curve assay (OD600, 18 h). In kind it is cell-based, Pseudomonas aeruginosa. The settings on record: P. aeruginosa.
Series [3] relates to S. aureus ATCC 6538. Description: Bacterial growth curve assay (OD600, 18 h). The format is cell-based, Staphylococcus aureus. Particulars: S. aureus ATCC 6538, 0.1 μg/mL.
Series [4] has as its system E. coli ATCC 25922 biofilm. Description: Biofilm eradication assay (crystal violet). In kind it is cell-based, Escherichia coli. Particulars: 4 MIC. The protocol:
(§2) Three bacterial strains E. coli ATCC 25922, P. aeruginosa ATCC 15442, and S. aureus ATCC 6538 were used to assign biofilm eradication properties of compounds 5, 10, 11, and CP as the reference drug. To quantify the biomass of the bacteria biofilm, the crystal violet method was used with some modifications.[52] The bacteria were incubated to the mid-log phase, diluted to 103 cfu/mL in brain–heart infusion medium, and seeded in a 96-well plate. Bacterial biofilms were formed by overnight incubation at 37 °C with rotation at 140 rpm. After biofilm formation, all wells were washed with PBS to remove nonadherent bacteria cells. […] The biofilms with tested substances were incubated for 20 h at 37 °C with shaking at 140 rpm. The bacterial biofilm was stained with 0.1% (v/v) CV for 10 min. Afterward, the biofilm was rinsed with PBS and dried. To solubilize the adsorbed crystal violet, wells with stained biofilms were incubated in 30% acetic acid. To estimate the total biofilm biomass, optical density (OD) of the resulting solution was measured at 595 nm. Biofilm assays were repeated at least three times on different days, with two technical replicates assessed each time. A minimum eradication concentration (MBEC) was determined as the lowest concentration of compound, which could damage ≥50% of the formed biofilm structure.

The subject of series [5] is S. aureus ATCC 6538 biofilm. Description: Biofilm eradication assay (crystal violet). In kind it is cell-based, Staphylococcus aureus. The settings on record: 4–2 MIC. The protocol: as §2
In a further series the test system is S. aureus NCTC 4163. Description: MIC, twofold microdilution, standard strain. The settings on record: Staphylococcus aureus, NCTC4163, 18 h. The format is cell-based. (In general: Broth dilution looks for growth in wells or tubes with falling amounts of substance.)
Another series deals with S. aureus ATCC 25923. Description: MIC, twofold microdilution, standard strain. In kind it is cell-based. The settings on record: Staphylococcus aureus, ATCC25923, 18 h.
Series [6] has as its system S. aureus ATCC 6538. Description: MIC, twofold microdilution, standard strain. The format is cell-based, Staphylococcus aureus. The settings on record: Staphylococcus aureus, ATCC6538; standard strain, 18 h.
The next series has as its system S. aureus ATCC 29213. The series is described as follows: MIC, twofold microdilution, standard strain. The format is cell-based. Particulars: Staphylococcus aureus, ATCC29213, 18 h.
Series [7] relates to S. epidermidis ATCC 12228. The series is described as follows: MIC, twofold microdilution, standard strain. In kind it is cell-based. Particulars: Staphylococcus epidermidis, ATCC12228, 18 h.
Series [8] deals with S. epidermidis ATCC 35984. Description: MIC, twofold microdilution, standard strain. In kind it is cell-based. The settings on record: Staphylococcus epidermidis, ATCC35984, 18 h.
Series [9] has as its system P. aeruginosa ATCC 15442. The series is described as follows: MIC, twofold microdilution, standard strain. In kind it is cell-based, Pseudomonas aeruginosa. The settings on record: Pseudomonas aeruginosa, ATCC15442; standard strain, 18 h.
A further series deals with E. coli ATCC 25922. Description: MIC, twofold microdilution, standard strain. In kind it is cell-based, Escherichia coli. The settings on record: Escherichia coli, ATCC25922; standard strain, 18 h.
In a further series the test system is S. aureus 180. The series is described as follows: MIC, twofold microdilution, clinical strain. In kind it is cell-based. Particulars: Staphylococcus aureus, 18 h.
A further series deals with S. aureus 5595. Description: MIC, twofold microdilution, clinical strain. In kind it is cell-based. The settings on record: Staphylococcus aureus, 18 h.
Another series deals with S. aureus T5595. Description: MIC, twofold microdilution, clinical strain. In kind it is cell-based, Staphylococcus aureus. Particulars: Staphylococcus aureus, T5595, 18 h.
A further series relates to S. aureus T5591. The series is described as follows: MIC, twofold microdilution, clinical strain. The format is cell-based, Staphylococcus aureus. The settings on record: Staphylococcus aureus, T5591, 18 h.
The test system of the next series is S. epidermidis 4341. Description: MIC, twofold microdilution, clinical strain. In kind it is cell-based. Particulars: Staphylococcus epidermidis, 18 h.
Another series has as its system S. epidermidis 5253. The series is described as follows: MIC, twofold microdilution, clinical strain. In kind it is cell-based, Staphylococcus epidermidis. Particulars: Staphylococcus epidermidis, 5253, 18 h.
For the next series, the system named is S. epidermidis KR4243/1. The series is described as follows: MIC, twofold microdilution, clinical strain. The format is cell-based. The settings on record: Staphylococcus epidermidis, 18 h.
The subject of the next series is S. pasteuri KR 4358. The series is described as follows: MIC, twofold microdilution, clinical strain. The format is cell-based. The settings on record: Staphylococcus pasteuri, KR4358, 18 h.
The subject of the next series is P. aeruginosa 37. Description: MIC, twofold microdilution, clinical strain. Particulars: Pseudomonas aeruginosa, 18 h. In kind it is cell-based.
For another series, the system named is P. aeruginosa 659. The series is described as follows: MIC, twofold microdilution, clinical strain. In kind it is cell-based. Particulars: Pseudomonas aeruginosa, 18 h.
The test system of another series is E. coli 951. The series is described as follows: MIC, twofold microdilution, clinical strain. In kind it is cell-based. The settings on record: Escherichia coli, 18 h.
For the next series, the system named is E. coli 520. The series is described as follows: MIC, twofold microdilution, clinical strain. The format is cell-based. The settings on record: Escherichia coli, 18 h.
In the next series the test system is E. coli 600. Description: MIC, twofold microdilution, clinical strain. In kind it is cell-based, Escherichia coli. The settings on record: Escherichia coli, 600, 18 h.
A further series has as its system E. cloacae 8. The series is described as follows: MIC, twofold microdilution, clinical strain. In kind it is cell-based, Escherichia cloacae. Particulars: Enterobacter cloacae, 8; clinical strain, 18 h.
The subject of another series is K. pneumoniae 28. Description: MIC, twofold microdilution, clinical strain. In kind it is cell-based. Particulars: Klebsiella pneumoniae, 18 h.
Another series has as its system K. pneumoniae 510. Description: MIC, twofold microdilution, clinical strain. The format is cell-based, Klebsiella pneumoniae. The settings on record: Klebsiella pneumoniae, 510; clinical strain, 18 h.
The next series has as its system M. tuberculosis H37Rv. The series is described as follows: Tuberculostatic activity, Microplate Alamar Blue Assay (MIC). In kind it is cell-based, Mycobacterium tuberculosis. Particulars: Mycobacterium tuberculosis, H37RV; MABA; read-out: MIC M. tuberculosis H37Rv.
For series [10], the system named is M. tuberculosis Spec. 192. The series is described as above. In kind it is cell-based. The settings on record: Mycobacterium tuberculosis, MABA, read-out: MIC M. tuberculosis Spec. 192 (sensitive to tuberculostatics).
A further series concerns M. tuberculosis Spec 210. Description: microbe, parasite or virus in culture. Particulars: M. tuberculosis Spec. 210. In kind it is cell-based, Mycobacterium tuberculosis.
Series [11] in a line: MTT assay, cytotoxic activity. In kind it is cell-based. Particulars: human, HaCaT cells (immortal keratinocytes); MTT, 72 h, normal cell line; read-out: IC50 HaCaT. The essentials:
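Viability was calculated as A/B × 100%, with A the absorbance of treated samples and B that of untreated controls, from MTT reduction. Cells were cultured in a humidified 37 °C/5% CO2 incubator.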

The test system of series [12] is P. aeruginosa ATCC 15442 and E. coli ATCC 25922. The series is described as follows: MIC, standard Gram-negative rods as a panel. In kind it is cell-based. Particulars: P. aeruginosa ATCC 15442, E. coli ATCC 25922; read-out: MIC against standard Gram-negative rods (range over strains).
Series [13] deals with clinical bacterial strains. Description: MIC, clinical isolates as groups of strains. In kind it is cell-based. The settings on record: S. aureus 180 and 5595.

Values after ≈ are worked out from the molar mass of the structure shown.

As to `O=C(O)c1cn(C2CC2)c2cc(N3CCNCC3)c(F)cc2c1=O` [CP, ciprofloxacin, reference compound], the IC50 (usually the midpoint of a concentration-inhibition curve) in the series with PC3 cells (Homo sapiens, PC-3, 72 h) was > 100 µM; in the series with PC3 cells, 100 ± 3.6 µM. For the same molecule, in [1], the “effect on IL-6 in human keratinocytes” value was “stimulated human keratinocytes to produce IL-6”. In addition, in the series on IL-6 level in PC3 cells, the “decrease of IL-6 release as compared to the control” value is recorded as 2.4 times. In addition, in the series on P. aeruginosa ATCC 15442 [2] (0.05 μg/mL), the “lag phase elongated up to” value is on record as “up to 14 h”. For the same molecule, in the series on P. aeruginosa ATCC 15442 [2] (0.03–0.006 μg/mL), the “elongation of the exponential phase to” value was found to be 9 h. In the series with S. aureus ATCC 6538 [3], the “bacterial growth limited up to” value is listed as “up to 12 h”. Further, in [4], the “eradication of the biofilm formed by E. coli” value is reported as “approx. 20%”. The “elimination of the mature biofilm of S. aureus ATCC 6538” value in [5] is given as 19–25%.
Turning to `O=C(O)c1cn(C2CC2)c2cc(N3CCN(CCCCC(=O)N4CCN(c5cc6c(cc5F)c(=O)c(C(=O)O)cn6C5CC5)CC4)CC3)c(F)cc2c1=O` [Compound 19, CP–Pentanoyl–CP Dimer], the melting point (in general, the temperature of the solid-liquid transition) is 170.3 to 171.9 °C. The MIC (in general, the lowest concentration that inhibits growth of the organism) against S. aureus NCTC 4163 is 0.4 µg/mL (≈ 0.537 µM). This molecule also came in with an MIC against S. aureus ATCC 25923 of 0.8 µg/mL (≈ 1.07 µM). In the series with S. aureus ATCC 6538 [6], the MIC came to 0.4 µg/mL (≈ 0.537 µM). The MIC against S. aureus ATCC 29213 amounted to 0.8 µg/mL (≈ 1.07 µM). Besides, 0.8 µg/mL (≈ 1.07 µM) was the least that counted as inhibitory in series [7] (MIC). Also, the MIC in series [8] came to 0.8 µg/mL (≈ 1.07 µM). The molecule further had an MIC with P. aeruginosa ATCC 15442 [9] of 3.2 µg/mL (≈ 4.3 µM). In the series on E. coli ATCC 25922, this molecule yielded an MIC of 0.4 µg/mL (≈ 0.537 µM). In the series with S. aureus 180, this molecule returned a minimal inhibitory concentration (MIC) of 1.6 µg/mL (≈ 2.15 µM). In addition, the MIC with S. aureus 5595 worked out at 0.8 µg/mL (≈ 1.07 µM). The molecule further had an MIC against S. aureus T5595 of 1.6 µg/mL (≈ 2.15 µM). Further, the MIC against S. aureus T5591 amounted to 0.8 µg/mL (≈ 1.07 µM). Further, in the series on S. epidermidis 4341, the MIC is > 25.6 µg/mL. Besides, the MIC against S. epidermidis 5253 is > 25.6 µg/mL. Moreover, the MIC in the series with S. epidermidis KR4243/1 turned out to be 1.6 µg/mL (≈ 2.15 µM). It took 1.6 µg/mL (≈ 2.15 µM) to inhibit growth against S. pasteuri KR 4358 (MIC). The MIC in the series with P. aeruginosa 37 is > 25.6 µg/mL. For the same molecule, in the series with P. aeruginosa 659, the lowest concentration to inhibit growth (MIC) was 25.6 µg/mL (≈ 34.4 µM). Besides, the MIC against E. coli 951 is 25.6 µg/mL (≈ 34.4 µM). The molecule also had an MIC in the series on E. coli 520 of 3.2 µg/mL (≈ 4.3 µM). Besides, the MIC against E. coli 600 turned out to be 3.2 µg/mL (≈ 4.3 µM). In the series on E. cloacae 8, this molecule came in with an MIC of 3.2 µg/mL (≈ 4.3 µM). In addition, the MIC against K. pneumoniae 28 was > 25.6 µg/mL. In addition, the MIC with K. pneumoniae 510 was > 25.6 µg/mL. Moreover, the MIC with M. tuberculosis H37Rv is 8 µg/mL (≈ 10.7 µM). The MIC in [10] was determined as 8 µg/mL (≈ 10.7 µM). For the same molecule, the “fold more effective than the reference tuberculostatics” value in the series on M. tuberculosis Spec 210 is 8–32 fold. The molecule further gave an IC50 in the series with PC3 cells (Homo sapiens, PC-3, 72 h) of 71.4 ± 3.2 µM. Besides, in series [11], the IC50 at 72 h turned out to be 72.9 ± 5.7 µM. Moreover, the MIC in series [12] is ≤ 1 µg/mL. In addition, in series [13], the “share of CP inhibitory activity” value worked out at 62.5%.
